According to patent publication US20210147932A1, “FLUORESCENT PROBES FOR QUANTIFICATION OF DNA DAMAGE AND REPAIR” (The Board of Trustees of the Leland Stanford Junior …, priority 2019, published 2021):

Experiments:
NTH1 = target: T1, NTH1 (Homo sapiens, UniProt P78549); test: NTH1 coupled assay with 5-hydroxycytosine DNA hairpin; format: biochemical; conditions: NTH1 500 nM, 5hC DNA substrate 60 μM, CCVJ1 20 μM
T1 construct: purchased Novus biologics
T1 sequence (P78549 23-304): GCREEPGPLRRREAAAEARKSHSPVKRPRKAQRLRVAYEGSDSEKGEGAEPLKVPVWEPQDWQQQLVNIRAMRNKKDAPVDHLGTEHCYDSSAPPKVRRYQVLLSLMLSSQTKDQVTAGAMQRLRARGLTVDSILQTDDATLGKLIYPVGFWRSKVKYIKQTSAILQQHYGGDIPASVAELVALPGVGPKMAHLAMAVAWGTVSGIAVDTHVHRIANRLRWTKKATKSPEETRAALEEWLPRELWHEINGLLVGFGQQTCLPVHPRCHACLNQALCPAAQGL
Procedure: FIG. 15, panels A-G provides quantitative coupled assays using Compound (1) (CCJV1). Shown are data from reaction of lesion containing substrates with UNG and SMUG1 (5 nM) (panel A), MPG (100 nM) (panel B), NTH1 (500 nM) (panel C), OGG1 (100 nM) in real-time (panel D) with lesion containing DNA (2 μM) and CCVJ1 (20 μM) (panels A, B and D) or lesion containing DNA (60 μM) and CCVJ1 (20 μM) […]. […] Delay time tss of 25 minutes indicated with dotted line.
FIG. 16 provides time course of NTH1 (500 nM) with 5-hydroxycytosine containing DNA (60 μM) and Compound (1) (CCVJ1) (20 μM). […] Following a 10-minute incubation period, additional substrate was then added (20 μM) which yielded an increase in fluorescence.
Based on the results of our neighboring base effect study, several glycosylase oligonucleotide substrates were purchased or prepared in which the identity of the base lesion X was varied to correspond to the known activities of different target glycosylases (FIG. 15, panel E). For these studies human enzymes SMUG1/UNG, OGG1, MPG and NTH1, were chosen which represent a diverse array of human glycosylases. […] Assays were carried out in a 60 μL volume in a 384 well format on a microplate reader using a fluorescein filter set. For each enzyme, it was possible to observe a robust fluorescence signal (FIG. 15, panels A-D). […]

AP site-containing DNA = test: Competition for oxime formation between CCVJ1 and AP site-containing DNA; format: biochemical
Procedure: FIG. 6 provides effect of adding exemplary linker NH2CH2CH2ONH2 to the reaction of Compound (1) (CCVJ1) (5 μM) with AP site containing DNA (20 μM) in buffer.
FIG. 9 provides interaction between Compound (1) (CCVJ1) and DNA. […] (Ex. 485, Em. 538).
FIG. 14 provides effect of competing aldehydes/ketones on maximum fluorescence signal.
Additional experiments were performed to study the origins of this unusually rapid reaction. […] To test the effect that proximity between the alkoxyamine and planar portion of the probe had on oxime kinetics in our probes, probes were synthesized having variable-length linkers (CCVJ2 and CCVJ3) from aldehyde reactive linkers L2 and L3 respectively (FIG. 2A). […] To test the importance of a double-stranded DNA structure to the rate and fluorescence response, an AP-containing single-stranded DNA oligonucleotide was reacted with CCVJ1. At pH 7, CCVJ1 reacted with a second-order rate constant of 33 M^−1s^−1 with the single-stranded substrate, roughly 5-fold slower than a double-stranded hairpin with identical sequence context (FIG. 8).
To further explore the hypothesis that the oxime rate acceleration in these AP-site DNAs was related to base stacking interactions, the fluorescence was measured of CCVJ1 in the presence and absence of a non-lesion containing DNA hairpin.
Since the probe design involves conformational restriction to induce a light-up signal, it was hypothesized that off-target oxime formation with small molecules might induce a relatively small signal relative to DNA, thus providing a measure of selectivity in signaling. […] Another potential aspect is that ketones or aldehydes in the environment might compete with the DNA AP site to react with the aminooxy group, thereby consuming the free probe and reducing the maximum signal. Initial testing of the reactivity of CCVJ1 with AP site-containing DNA in the presence of increasing amounts of competing 2-deoxyribose, the closest small-molecule analogue to the DNA AP site. […] This was repeated this experiment with pyruvic acid, a highly reactive ketone and a common cellular metabolite.

## N#C/C(=C\c1cc2c3c(c1)CCCN3CCC2)C(=O)NCCON [CCVJ1]
NTH1
  overall fold change of fluorescence with NTH1: 20 fold
AP site-containing DNA; 20 μM pseudo AP hairpin, 20 μM AP DNA, 5 μM CCVJ1
  effect of equimolar pseudo AP DNA on rate of apparent oxime formation: no effect on the rate of apparent oxime formation
AP site-containing DNA; 1 mM deoxyribose (200 equivalents)
  effect of competing 2-deoxyribose on maximum signal: no effect on the maximum signal
AP site-containing DNA; 4 mM deoxyribose (800 equivalents)
  signal retained compared to the AP DNA alone: 85%
AP site-containing DNA; up to 200 μM pyruvate (40 equivalents)
  effect of competing pyruvate on overall signal: no significant reduction in overall signal
